According to PMC5531494, “Target specificity, in vivo pharmacokinetics, and efficacy of the putative STAT3 inhibitor LY5 in osteosarcoma, Ewing's sarcoma, and rhabdomyosarcoma” (PLoS ONE, 2017):

Tests used:
[1] = system: 96 human protein or lipid kinases; assay: KINOMESCAN binding profile
Procedure: To determine the specificity of STAT blockade, we asked whether LY5 affected the phosphorylation of other family members including STAT1, STAT2, STAT4, and STAT6 [30–32]. […] To further define any potential off-target effects, we profiled the direct (steric) or indirect (allosteric) binding of LY5 to the binding sites of 96 human protein or lipid kinases (KINOMESCAN, www.kinomescan.com).
Supplementary file pone.0181885.s001.pdf: S1 Fig Kinomescan results for LY5. […] At 5 μM LY5 (B), only interaction with PLK3 was identified, mapped S-score (35) = 0.01. (PDF) Click here for additional data file.

[2] = system: human rhabdomyosarcoma cell lines RD, JR-1, and RH30; assay: Alamar Blue cell viability assay, rhabdomyosarcoma panel; type: cell-based; details: range over RD, JR-1, RH30
Procedure: Sarcoma cell lines were seeded in 24-well plates in 1X RPMI medium containing 10% fetal bovine serum. Cells were then incubated with DMSO (control) or concentrations of LY5 ranging from 10 nM to 10 μM for 96 hrs. At the end of the incubation period, Alamar Blue (Invitrogen, Carlsbad, CA) was added to cells at one-tenth the volume of the cell culture medium and incubated for 3 hrs at 37° C in the dark. Fluorescence was then measured at an excitation/emissions wavelength of 570/590 nm and emission wavelength of 590 nm.
Fig 2 Biologic activity of LY5 in sarcoma cell lines. Dose response curves for LY5: RMS cell lines (RH30, RD, JR-1), ES cell lines (ES-3, ES-6, ES-7, ES-8), and an OS cell line (OS-17) were treated with LY5 (concentrations ranging from 10 nM to 10 μM) for 96 hours. Cell viability was determined using Alamar Blue staining. IC50 values are indicated for each cell line. Analyses were performed in triplicate and data are plotted as means ± standard deviation.

[3] = system: K7M2 cells; assay: Ex vivo pulmonary metastasis assay (PuMA); type: cell-based, murine; details: K7M2, 10 μM LY5 only
Procedure: GFP-positive K7M2 and MG63.3 cells (3 x 10^5 MG63.3; 5 x 10^5 K7M2) were administered via tail vein injection into mice. Following humane euthanasia, the lungs were insufflated with a culture medium/agarose mixture to a constant hydrostatic pressure of 20 cm H2O and prepared for ex vivo culture as previously described. Lung sections were cultured in complete media containing LY5 (0, 0.1, 1, 10 or 50 μM) on sterile Gelfoam using 6 lung sections per treatment condition. Media was changed every 48 hrs and lung slices were imaged with a fluorescent microscope every 7 days for a total of 21 days.
MG63.3 and K7M2 cell lines were exposed to increasing concentrations of LY5 to determine the IC50 (A). Western blot analysis was performed to determine the dose and duration of LY5 exposure required to inhibit STAT3 phosphorylation (B-C). Serial imaging of fluorescently labeled MG63.3 and K7M2 cells was performed in ex vivo LY5 treated lung sections (D). Metastatic burden was quantified by evaluation of the percent tumor burden (mean normalized fluorescent area). Data are reported as the mean ± standard deviation. In MG 63.3 experiment, p < 0.0001 Kruskal-Wallis test, p < 0.05 10 μM vs control at days 7, 14, and 21, 10 μM vs 1 μM at days 7, 14, and 21, 50 μM vs control at days 7, 14, and 21, and 50 μM vs 10 μM at days 7, 14, and 21 post-test Dunn. […]

[4] = target: STAT3 (Homo sapiens, UniProt P40763); assay: Western blot of pSTAT3 in MG63.3 cells; type: cell-based; parameters: endogenous in cells; host or cells: MG63.3
Procedure: Murine K7M2 and human MG63.3 OS cells were treated with increasing concentrations of LY5 for 2 hrs or 7 hrs. Western blotting was performed for pSTAT3 and STAT3 as indicated above to confirm inhibition of STAT3 phosphorylation in the cell lines prior to initiation of the PuMA assay. In addition, a sulforhodamine B colorimetric assay was performed to assess the cytotoxicity of LY5 in K7M2 and MG63.3 cells as previously described.
MG63.3 and K7M2 cell lines were exposed to increasing concentrations of LY5 to determine the IC50 (A). Western blot analysis was performed to determine the dose and duration of LY5 exposure required to inhibit STAT3 phosphorylation (B-C). Serial imaging of fluorescently labeled MG63.3 and K7M2 cells was performed in ex vivo LY5 treated lung sections (D). Metastatic burden was quantified by evaluation of the percent tumor burden (mean normalized fluorescent area). Data are reported as the mean ± standard deviation. In MG 63.3 experiment, p < 0.0001 Kruskal-Wallis test, p < 0.05 10 μM vs control at days 7, 14, and 21, 10 μM vs 1 μM at days 7, 14, and 21, 50 μM vs control at days 7, 14, and 21, and 50 μM vs 10 μM at days 7, 14, and 21 post-test Dunn. In K7M2 experiment, p < 0.0001 Kruskal-Wallis test, p < 0.05 10 μM vs control at days 14 and 21, 10 μM vs 0.1 μM at days 14 and 21, and 10 μM vs 1 μM at days 14 and 21, post-test Dunn.

[5] = target: T1, STAT1 (Homo sapiens, UniProt P42224); assay: Cytokine-induced STAT1 phosphorylation in SJSA cells, Western blot; type: cell-based; details: induced by IFN-γ, IFN-α, or IL-4
T1 construct: endogenous in cells; host or cells: SJSA
Procedure: Cell lysis, protein isolation and immunoblotting were performed as described previously. Twenty micrograms of protein were resolved using 4–12% Bis-Tris polyacrylamide gels. Gels were transferred to PVDF membranes and subjected to blocking and incubation with primary and secondary antibodies. The primary antibodies used in this study included: phospho-STAT3 (Tyr705, Cell Signaling, Boston, MA and Abcam, Cambridge, MA), total STAT3 (Cell Signaling and Abcam), phospho-STAT1 (Cell Signaling), total STAT1 (Cell Signaling), phospho-STAT2 (Cell Signaling), phospho-STAT4 (Cell Signaling), phospho-STAT6 (Cell Signaling), and GAPDH (Cell Signaling). Protein bands were detected using Western Lightning ® Plus Enhanced Chemiluminescence substrate (Perkin Elmer, Waltham, MA) and HyBlot CL ® Autoradiography film (Denville Scientific, Holliston, MA). The cytokines used in this study included: interferon gamma (IFN-γ, Cell Signaling), interferon alpha (IFN-α, Cell Signaling), interleukin-4 (IL-4, Cell Signaling), interleukin-6 (IL-6, Cell Signaling), and oncostatin M (OSM, Cell Signaling).
Fig 1 LY5 inhibits pSTAT3 in sarcoma cell lines. (A) The tumor cell lines RH30, EW8, and RD were treated with increasing concentrations of LY5 for 30 minutes. Cell lysates were collected for Western blotting of p-STAT3, total STAT3, and GAPDH. GAPDH was used as loading control. […]

STAT3, sequence (P40763 whole entry): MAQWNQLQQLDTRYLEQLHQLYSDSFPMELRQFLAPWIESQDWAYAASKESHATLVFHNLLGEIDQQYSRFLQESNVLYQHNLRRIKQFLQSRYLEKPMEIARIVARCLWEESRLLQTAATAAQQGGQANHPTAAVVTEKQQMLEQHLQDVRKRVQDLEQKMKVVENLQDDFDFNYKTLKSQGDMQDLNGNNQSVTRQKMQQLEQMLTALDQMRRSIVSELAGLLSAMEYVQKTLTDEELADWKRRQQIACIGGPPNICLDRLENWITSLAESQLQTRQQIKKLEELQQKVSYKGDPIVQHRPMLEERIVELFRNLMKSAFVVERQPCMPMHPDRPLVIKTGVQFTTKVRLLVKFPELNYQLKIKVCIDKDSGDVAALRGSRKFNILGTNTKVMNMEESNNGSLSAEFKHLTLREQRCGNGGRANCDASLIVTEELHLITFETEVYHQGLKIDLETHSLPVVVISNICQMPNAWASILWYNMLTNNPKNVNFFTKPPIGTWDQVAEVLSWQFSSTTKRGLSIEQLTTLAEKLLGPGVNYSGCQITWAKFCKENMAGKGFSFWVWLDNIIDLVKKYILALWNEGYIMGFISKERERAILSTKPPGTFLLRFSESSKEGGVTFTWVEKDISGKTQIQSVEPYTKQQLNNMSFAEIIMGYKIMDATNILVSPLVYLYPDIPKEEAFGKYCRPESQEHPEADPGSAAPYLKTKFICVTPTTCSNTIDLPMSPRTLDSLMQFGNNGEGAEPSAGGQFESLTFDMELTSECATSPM
T1 sequence (P42224 whole entry): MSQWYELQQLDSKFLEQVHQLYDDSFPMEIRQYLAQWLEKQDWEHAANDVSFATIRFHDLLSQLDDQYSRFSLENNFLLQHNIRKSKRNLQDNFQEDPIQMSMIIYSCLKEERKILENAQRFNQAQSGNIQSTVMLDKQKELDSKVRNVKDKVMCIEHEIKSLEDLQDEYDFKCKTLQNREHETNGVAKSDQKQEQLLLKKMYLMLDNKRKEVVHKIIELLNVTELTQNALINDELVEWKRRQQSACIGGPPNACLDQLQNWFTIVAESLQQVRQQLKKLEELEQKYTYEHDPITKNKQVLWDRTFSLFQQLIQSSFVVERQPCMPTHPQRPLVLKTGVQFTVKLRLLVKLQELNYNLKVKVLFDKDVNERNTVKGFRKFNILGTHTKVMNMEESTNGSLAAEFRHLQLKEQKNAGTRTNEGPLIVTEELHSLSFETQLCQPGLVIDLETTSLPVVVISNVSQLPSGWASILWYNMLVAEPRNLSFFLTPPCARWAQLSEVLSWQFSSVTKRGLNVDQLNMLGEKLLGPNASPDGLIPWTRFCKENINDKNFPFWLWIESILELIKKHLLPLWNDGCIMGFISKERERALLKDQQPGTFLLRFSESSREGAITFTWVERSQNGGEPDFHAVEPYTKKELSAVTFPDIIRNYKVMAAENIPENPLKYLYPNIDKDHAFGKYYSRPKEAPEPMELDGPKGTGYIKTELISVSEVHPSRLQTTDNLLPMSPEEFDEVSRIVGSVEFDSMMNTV

SMILES: NS(=O)(=O)c1cccc2c1C(=O)C=C(Nc1cccnc1)C2=O [LY5, 5,8-dioxo-6-(pyridin-3-ylamino)-5,8-dihydronaphthalene-1-sulfonamide]
- binding to any of 96 kinases ([1]; 1 μM LY5): no binding
- mapped S-score (35) ([1]; 1 μM LY5): 0
- mapped S-score (35) ([1]; 5 μM LY5): 0.01
- IC50 [2]: 0.2 to 0.4 µM
- tumor burden in PuMA [3]: reduction
- exposure time for effective inhibition of STAT3 phosphorylation ([4]; MG 63.3, 1 μM LY5): 0.5 h
- concentration that decreased STAT3 phosphorylation ([4]; MG63.3, 2 hrs treatment): 1 µM
- phosphorylation of STAT1 [5]: did not inhibit
